# Assay results as given in ChEMBL document CHEMBL5096228, “Targeting Vancomycin-Resistant Enterococci (VRE) Infections and Van Operon-Mediated Drug Resistance Using Dimeric Cholic Acid-Peptide Conjugates” (J Med Chem, 2022).
# pIC50: −log10 of the molar value. Calls of active or inactive are those of the source. The rule behind the calls is not given here.
# Experiments:
# Staphylococcus aureus [1] = assay: Antimicrobial activity against Staphylococcus aureus ATCC 25923 assessed as growth inhibition after 14 to 16 hrs by CLSI based broth dilution method; type: functional; conditions: time 14-16 hrs
# Enterococcus faecium [2] = assay: Antimicrobial activity against Enterococcus faecium assessed as growth inhibition after 14 to 16 hrs by CLSI based broth dilution method; type: functional; conditions: time 14-16 hrs
# Staphylococcus aureus [3] = assay: Antimicrobial activity against methicillin-resistant Staphylococcus aureus ATCC 33591 assessed as growth inhibition after 14 to 16 hrs by CLSI based broth dilution method; type: functional; conditions: time 14-16 hrs
# Enterococcus faecium [4] = assay: Antimicrobial activity against Vancomycin-resistant Enterococcus faecium ATCC 51559 assessed as growth inhibition after 14 to 16 hrs by CLSI based broth dilution method; type: functional; conditions: time 14-16 hrs
# [5] = Cytotoxicity against mouse LLC cells assessed as reduction in cell viability; type: toxicity, cell-based; conditions: LLC (3LL) cells
# Mus musculus = assay: Antimicrobial activity against Vancomycin-resistant Enterococcus faecium ATCC 51559 induced wound in BALB/c mouse assessed as log reduction in colony forming unit at 40 mg/kg administered topically 3 times daily for 3 days; type: functional; conditions: route top, time 3 day
# Enterococcus faecium [6] = assay: Resistance development in vancomycin-susceptible Enterococcus faecium assessed as vancomycin MIC99 at 2 ug/ml measured after 110 vancomycin passages; type: functional, organism-based; conditions: dose 2.0 µg/ml
# Enterococcus faecium [7] = assay: Development of drug resistance in vancomycin-resistant Enterococcus faecium ATCC 51559 assessed as increase in TN1546 expression measured after 7 days; type: functional; conditions: time 7 day
# Enterococcus faecium [8] = assay: Bactericidal activity against Vancomycin-resistant Enterococcus faecium ATCC 51559 assessed as inhibition of bacterial growth at 4 to 16 ug/ml measured upto 24 hrs by time-kill assay; type: functional, organism-based; conditions: dose 4-16 µg/ml
# [9] = Hemolytic activity in human RBC at 50 ug/ml; type: toxicity, cell-based, Erythrocyte; conditions: red blood cells (erythrocytes), at 50 µg/mL, read-out: Activity
# Cell membrane [10] = assay: Induction of membrane disruption in Vancomycin-resistant Enterococcus faecium ATCC 51559 at 4 to 16 ug/ml measured after 15 mins by DiSC2(5) dye based multimode plate reader assay; type: functional, subcellular; conditions: dose 4-16 µg/ml
# Enterococcus faecium [11] = assay: Induction of reactive oxygen species generation in Enterococcus faecium ATCC 51559 incubated for 1 hr by DCFH-DA based fluorescent microscopy; type: functional, organism-based
# [12] = Induction of membrane-permeabilization in Enterococcus faecium ATCC 51559 at 4 ug/ml measured after 1 hr by PI staining based flow cytometry analysis; conditions: at 4 µg/mL
# Enterococcus faecium [13] = assay: Induction of membrane-permeabilization in Enterococcus faecium ATCC 51559 at 8 ug/ml measured after 1 hr by PI staining based flow cytometry analysis; type: functional; conditions: dose 8.0 µg/ml
# Enterococcus faecium [14] = assay: Membrane permeabilization in Enterococcus faecium ATCC 51559 at 16 ug/ml measured after 1 hr by PI staining based flow cytometry analysis; type: functional; conditions: dose 16 µg/ml
# Cell membrane [15] = assay: Disruption of membrane in Enterococcus faecium ATCC 51559 at 4 to 16 ug/ml measured after 1 hr by SYTO9/PI staining based fluorometric analysis; type: subcellular; conditions: dose 4-16 µg/ml
# Cell membrane [16] = assay: Disruption of membrane in Enterococcus faecium ATCC 51559 at 4 ug/ml by SYTO9/PI staining based fluorometric analysis; conditions: dose 4.0 µg/ml, time 1-6 hrs, TDE = time-dependent effect
# Enterococcus faecium [17] = assay: Antibiofilm activity against Vancomycin-resistant Enterococcus faecium ATCC 51559 assessed as log reduction in colony forming unit incubated for 12 hrs by SYTO9 and PI staining based fluorescence assay; type: functional, organism-based; conditions: dose 4-16 µg/ml, DDE = dose-dependent effect
# Enterococcus faecium [18] = assay: Antibiofilm activity against Vancomycin-resistant Enterococcus faecium ATCC 51559 assessed as log reduction in colony forming unit at 16 ug/ml incubated for 12 hrs by SYTO9 and PI staining based fluorescence assay; type: functional; conditions: dose 16 µg/ml
# Enterococcus faecium [19] = assay: Antibiofilm activity against Vancomycin-resistant Enterococcus faecium ATCC 51559 assessed as log reduction in colony forming unit at 32 ug/ml incubated for 12 hrs by SYTO9 and PI staining based fluorescence assay; type: functional; conditions: dose 32 µg/ml
# Enterococcus faecium [20] = assay: Antibiofilm activity against Vancomycin-resistant Enterococcus faecium ATCC 51559 assessed as log reduction in colony forming unit at 16 ug/ml by SYTO9 and PI staining based fluorescence assay; type: functional, organism-based; conditions: dose 16.0 µg/ml, time 1-6 hrs, TDE = time-dependent effect
# Enterococcus faecium [21] = assay: Antibiofilm activity against Vancomycin-resistant Enterococcus faecium ATCC 51559 assessed as log reduction in colony forming unit at 16 ug/ml incubated for 3 hrs by SYTO9 and PI staining based fluorescence assay; type: functional; conditions: dose 16 µg/ml
# Enterococcus faecium [22] = assay: Antimicrobial activity against vancomycin-susceptible Enterococcus faecium induced wound in BALB/c mouse assessed as log reduction in colony forming unit at 40 mg/kg administered topically 3 times daily for 3 days; type: functional, organism-based; conditions: route top, time 3.0 day
# Enterococcus faecium [23] = assay: Resistance development in vancomycin-resistance Enterococcus faecium ATCC 51559 assessed as decrease CFU measured in presence of vancomycin; type: functional, organism-based
# Enterococcus faecium [24] = assay: Development of drug resistance in vancomycin-resistant Enterococcus faecium ATCC 51559 assessed as increase in TN1546 expression measured after 7 days in presence of vancomycin; type: functional, organism-based; conditions: time 7.0 day
# Enterococcus faecium [25] = assay: Inhibition of vancomycin-resistance in Enterococcus faecium ATCC 51559 assessed as increase in vanR expression at 2 ug/ml measured after 1 hr by qRT-PCR analysis; type: functional; conditions: dose 2.0 µg/ml
# Enterococcus faecium [26] = assay: Inhibition of vancomycin-resistance in Enterococcus faecium ATCC 51559 assessed as increase in vanS expression at 2 ug/ml measured after 1 hr by qRT-PCR analysis; type: functional; conditions: dose 2.0 µg/ml
# Enterococcus faecium [27] = assay: Inhibition of vancomycin-resistance in Enterococcus faecium ATCC 51559 assessed as increase in vanH expression at 2 ug/ml measured after 1 hr by qRT-PCR analysis; type: functional; conditions: dose 2.0 µg/ml
# Enterococcus faecium [28] = assay: Inhibition of vancomycin-resistance in Enterococcus faecium ATCC 51559 assessed as increase in vanA expression at 2 ug/ml measured after 1 hr by qRT-PCR analysis; type: functional; conditions: dose 2.0 µg/ml
# Enterococcus faecium [29] = assay: Inhibition of vancomycin-resistance in Enterococcus faecium ATCC 51559 assessed as increase in vanX expression at 2 ug/ml measured after 1 hr in presence of vancomycin by qRT-PCR analysis; type: functional; conditions: dose 2.0 µg/ml
# Enterococcus faecium [30] = assay: Inhibition of vancomycin-resistance in Enterococcus faecium ATCC 51559 assessed as increase in vanY expression at 2 ug/ml measured after 1 hr by qRT-PCR analysis; type: functional; conditions: dose 2.0 µg/ml
# Enterococcus faecium [31] = assay: Inhibition of vancomycin-resistance in Enterococcus faecium ATCC 51559 assessed as increase in vanZ expression at 2 ug/ml measured after 1 hr by qRT-PCR analysis; type: functional; conditions: dose 2.0 µg/ml
# Enterococcus faecium [32] = assay: Inhibition of vancomycin-resistance in Enterococcus faecium ATCC 51559 assessed as reduction in vanR expression at 2 ug/ml measured after 1 hr in presence of vancomycin by qRT-PCR analysis; type: functional; conditions: dose 2.0 µg/ml
# Enterococcus faecium [33] = assay: Inhibition of vancomycin-resistance in Enterococcus faecium ATCC 51559 assessed as reduction in vanS expression at 2 ug/ml measured after 1 hr in presence of vancomycin by qRT-PCR analysis; type: functional; conditions: dose 2.0 µg/ml
# Enterococcus faecium [34] = assay: Inhibition of vancomycin-resistance in Enterococcus faecium ATCC 51559 assessed as reduction in vanH expression at 2 ug/ml incubated for 1 hr measured after 7 days in presence of vancomycin by qRT-PCR analysis; type: functional; conditions: dose 2.0 µg/ml
# Enterococcus faecium [35] = assay: Inhibition of vancomycin-resistance in Enterococcus faecium ATCC 51559 assessed as reduction in vanA expression at 2 ug/ml incubated for 1 hr measured after 7 days in presence of vancomycin by qRT-PCR analysis; type: functional; conditions: dose 2.0 µg/ml
# Enterococcus faecium [36] = assay: Inhibition of vancomycin-resistance in Enterococcus faecium ATCC 51559 assessed as reduction in vanX expression at 2 ug/ml incubated for 1 hr measured after 7 days in presence of vancomycin by qRT-PCR analysis; type: functional; conditions: dose 2.0 µg/ml
# Enterococcus faecium [37] = assay: Inhibition of vancomycin-resistance in Enterococcus faecium ATCC 51559 assessed as reduction in vanY expression at 2 ug/ml incubated for 1 hr measured after 7 days in presence of vancomycin by qRT-PCR analysis; type: functional; conditions: dose 2.0 µg/ml
# Enterococcus faecium [38] = assay: Inhibition of vancomycin-resistance in Enterococcus faecium ATCC 51559 assessed as reduction in vanZ expression at 2 ug/ml incubated for 1 hr measured after 7 days in presence of vancomycin by qRT-PCR analysis; type: functional; conditions: dose 2.0 µg/ml
compound,measurement,setting,value
CN[C@H](CC(C)C)C(=O)N[C@H]1C(=O)N[C@@H](CC(N)=O)C(=O)N[C@H]2C(=O)N[C@H]3C(=O)N[C@H](C(=O)N[C@H](C(=O)O)c4cc(O)cc(O)c4-c4cc3ccc4O)[C@H](O)c3ccc(c(Cl)c3)Oc3cc2cc(c3O[C@@H]2O[C@H](CO)[C@@H](O)[C@H](O)[C@H]2O[C@H]2C[C@](C)(N)[C@H](O)[C@H](C)O2)Oc2ccc(cc2Cl)[C@H]1O [VANCOMYCIN],MIC99,Staphylococcus aureus [1],8 µg/mL
same,MIC99,Enterococcus faecium [2],4 µg/mL
same,MIC99,Staphylococcus aureus [3],2 µg/mL
same,MIC99,Enterococcus faecium [4],> 128 µg/mL
same,pIC50,[5],< 3.00
same,log(activity),Mus musculus,2
same,Activity,Enterococcus faecium [6],Active
same,fold change (FC),Enterococcus faecium [7],3
CC(C)C(N)C(=O)NCC(=O)O[C@@H]1CC[C@@]2(C)[C@@H](C1)C[C@@H](OC(=O)CNC(=O)C(N)C(C)C)[C@@H]1[C@@H]2C[C@H](OC(=O)CNC(=O)C(N)C(C)C)[C@]2(C)[C@@H]([C@H](C)CCC(=O)NCc3cn(CCCn4cc(CNC(=O)CC[C@@H](C)[C@H]5CC[C@H]6[C@@H]7[C@H](OC(=O)CNC(=O)C(N)C(C)C)C[C@@H]8C[C@H](OC(=O)CNC(=O)C(N)C(C)C)CC[C@]8(C)[C@H]7C[C@H](OC(=O)CNC(=O)C(N)C(C)C)[C@]56C)nn4)nn3)CC[C@@H]12.Cl.Cl.Cl.Cl.Cl.Cl (stereo not given in full),Activity,Enterococcus faecium [8],Active
same,MIC99,Staphylococcus aureus [1],64 µg/mL
same,MIC99,Enterococcus faecium [2],16 µg/mL
same,MIC99,Staphylococcus aureus [3],16 µg/mL
same,MIC99,Enterococcus faecium [4],4 µg/mL
same,IC50,[5],414 µg/mL
same,hemolysis at 50 ug/ml,[9],5%
same,Activity,Cell membrane [10],Active
same,Activity,Enterococcus faecium [11],Active
same,Activity,[12],90%
same,Activity,Enterococcus faecium [13],90%
same,Activity,Enterococcus faecium [14],90%
same,Activity,Cell membrane [15],Active
same,Activity,Cell membrane [16],Tde
same,Activity,Enterococcus faecium [17],Dde
same,log(activity),Enterococcus faecium [18],3
same,log(activity),Enterococcus faecium [19],5
same,Activity,Enterococcus faecium [20],Tde
same,log(activity),Enterococcus faecium [21],3
same,log(activity),Mus musculus,1
same,Activity,Enterococcus faecium [22],Active
same,Activity,Enterococcus faecium [23],Active
same,Activity,Enterococcus faecium [24],Active
same,Activity,Enterococcus faecium [25],Active
same,Activity,Enterococcus faecium [26],Active
same,Activity,Enterococcus faecium [27],Active
same,Activity,Enterococcus faecium [28],Active
same,Activity,Enterococcus faecium [29],Active
same,Activity,Enterococcus faecium [30],Active
same,Activity,Enterococcus faecium [31],Active
same,Activity,Enterococcus faecium [32],Active
same,Activity,Enterococcus faecium [33],Active
same,Activity,Enterococcus faecium [34],Active
same,Activity,Enterococcus faecium [35],Active
same,Activity,Enterococcus faecium [36],Active
same,Activity,Enterococcus faecium [37],Active
same,Activity,Enterococcus faecium [38],Active
